System: Round-Up Ready crops
Assay: Field tests on use of Glyphosate on Round-Up Ready crops
Format: in vivo
Conditions: Glyphosate-tolerant (Round-Up Ready) crops
Text: This adverse effect is referred to as the Glyphosate's phytotoxicity in present application.

With O=C(O)CNCP(=O)(O)O [Glyphosate] the “effect on the growth of Round-Up Ready crops (Glyphosate's phytotoxicity)” value was “substantial adverse effect to the growth”.

Source: US8153559B2, “Certain plant growth regulators (PGRs) as safener to Glyphosate for application to Glyphosate-tolerant crops” (CP Bio, Inc., priority 2004, dated 2012)
